{"source": "patent US10352936B2", "about": "“Use of tumor Fas expression to determine response to anti-cancer therapy” (ApopLogic Pharmaceuticals, Inc., priority 2011, dated 2019)", "tested_on": "naturally occurring appendicular osteosarcoma", "test": "Survival of dogs treated with neoadjuvant FasL plus standard of care versus carboplatin standard of care", "assay_type": "in vivo, dog", "conditions": "whole treatment group", "protocol": "Without being bound to theory, the principle of this treatment was based on a 10-day delay of therapy. The rationale for a 10-day delay approach was based on our preclinical data showing that there was statistically significant immunologic protection in animals immunized 10 days before challenge, as well as on the practicality of any delay of therapy approach. The experimental therapy was performed on Day 1, and dogs were followed to assess local and/or systemic toxicity for 10 days. At the end of the investigational period, dogs were treated using standard-of-care for OS.\nThe treatment sequence was as follows: On Day 0—history, physical, CBC, biochemical profile, urinalysis, chest radiographs, +/− bone scan. On Day 1, lesion biopsy and intratumoral injection. On Days 3, 7, and 10, toxicity monitoring with physical exam, CBC, biochemical profile, urinalysis, lameness evaluation and quality of life assessment. Day 10, amputation of affected limb.\nPatient selection, treatment, and biological sample preparation were conducted as described in Example 1. Fifty seven dogs were enrolled in the study. Two dogs were diagnosed with intramedullary tumors that were not OS, two dogs were withdrawn from the study, two dogs had pre-existing metastasis, two were lost to follow up, and four died of other causes. The rest of the patients were followed until their death, which was then determined to be disease-related (“died of disease”) or unrelated to disease recurrence (“died of other causes”).\nTable 1 depicts disease free interval (DFI), overall survival (OS), and percentage of dogs alive at 200 days following treatment and amputation that were treated with standard of care (carboplatin (carbo) control) and treated with FasL. Additionally, the disease free interval and overall survival of those dogs which had inflammation scores of 1 (low inflammation) as determined by histopathologic evaluation (see Example 1) or inflammation scores of 2-3 (moderate to high inflammation) is depicted. […]"}
{"smiles": "[NH2][Pt]1([NH2])[O]C(=O)C2(CCC2)C(=O)[O]1", "note": "[Carbo control, carboplatin]", "values": [{"measurement": "Disease Free Interval", "result": 213}, {"measurement": "Overall Survival", "result": 231, "unit": "days"}, {"measurement": "% Alive at 200 Days", "setting": "200 days following treatment and amputation", "result": 56, "unit": "%"}]}
